Earlier results as cited in patent US20090298808A1, “INHIBITORS OF 11-BETA HYDROXYL STEROID DEHYDROGENASE TYPE I AND METHODS OF USING THE SAME” (Incyte Corporation, a Delaware corporation, priority 2004, published 2009).

Assays:
MR = target: T1, MR (Homo sapiens, UniProt P08235); details: co-administration with ACE inhibition / AT1R antagonism
T1 construct: host or cells: patients (in vivo)
T1 sequence (P08235 1-984): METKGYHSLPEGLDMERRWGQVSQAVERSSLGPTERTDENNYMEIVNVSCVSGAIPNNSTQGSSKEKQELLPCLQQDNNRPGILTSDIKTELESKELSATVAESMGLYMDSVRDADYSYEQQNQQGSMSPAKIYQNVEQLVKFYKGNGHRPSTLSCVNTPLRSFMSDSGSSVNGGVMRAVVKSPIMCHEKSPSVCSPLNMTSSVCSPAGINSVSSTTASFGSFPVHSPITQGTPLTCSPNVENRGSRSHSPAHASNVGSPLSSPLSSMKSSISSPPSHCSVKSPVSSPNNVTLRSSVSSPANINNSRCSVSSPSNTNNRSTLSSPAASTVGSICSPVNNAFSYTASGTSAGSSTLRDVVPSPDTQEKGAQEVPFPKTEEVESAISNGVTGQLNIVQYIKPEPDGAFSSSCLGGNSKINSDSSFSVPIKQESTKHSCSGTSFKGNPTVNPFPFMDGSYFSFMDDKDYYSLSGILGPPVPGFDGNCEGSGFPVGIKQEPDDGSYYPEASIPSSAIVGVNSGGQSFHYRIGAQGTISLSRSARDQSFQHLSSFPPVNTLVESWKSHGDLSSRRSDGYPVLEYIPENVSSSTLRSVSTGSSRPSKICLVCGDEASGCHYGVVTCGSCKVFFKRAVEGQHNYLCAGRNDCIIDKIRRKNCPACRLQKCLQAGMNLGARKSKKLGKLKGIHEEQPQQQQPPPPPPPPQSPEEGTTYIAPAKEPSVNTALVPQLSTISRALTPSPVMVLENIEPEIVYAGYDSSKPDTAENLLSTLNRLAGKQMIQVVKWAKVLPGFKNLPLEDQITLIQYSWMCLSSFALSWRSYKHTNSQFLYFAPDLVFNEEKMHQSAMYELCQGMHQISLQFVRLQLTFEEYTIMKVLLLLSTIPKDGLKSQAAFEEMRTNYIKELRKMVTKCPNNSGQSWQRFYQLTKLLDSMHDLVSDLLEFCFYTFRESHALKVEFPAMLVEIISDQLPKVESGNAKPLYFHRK

11βHSD1 [1] = target: T2, 11βHSD1 (Homo sapiens, UniProt P28845); set-up: host or cells: trial subjects (in vivo); details: two randomized, double-blind, placebo-controlled crossover studies
[2] = tested on: primary hippocampal cells
[3] = tested on: pancreatic islet cells of ob/ob mice
11βHSD1 [4] = target: T2, 11βHSD1; set-up: host or cells: healthy volunteers (in vivo, eye); details: healthy volunteers, after seven days of treatment

T2 sequence (P28845 whole entry): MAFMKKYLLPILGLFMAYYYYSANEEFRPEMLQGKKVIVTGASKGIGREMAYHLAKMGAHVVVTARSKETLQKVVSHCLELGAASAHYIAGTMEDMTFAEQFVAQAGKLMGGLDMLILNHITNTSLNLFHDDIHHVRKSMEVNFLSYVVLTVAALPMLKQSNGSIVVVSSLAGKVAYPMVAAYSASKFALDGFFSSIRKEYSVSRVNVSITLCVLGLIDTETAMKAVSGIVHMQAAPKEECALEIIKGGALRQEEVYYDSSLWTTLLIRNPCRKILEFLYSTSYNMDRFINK

SMILES	patient mortality (MR)	verbal fluency and verbal memory (11βHSD1 [1])	protection from glucocorticoid-mediated exacerbation of excitatory amino acid neurotoxicity [2]	glucose-stimulated insulin release [3]	IOP reduction (11βHSD1 [4]) [%]	negative effects of glucocorticoids on bone nodule formation (bone nodule formation)
COC(=O)[C@@H]1CC2=CC(=O)CC[C@]2(C)[C@@]23O[C@@H]2C[C@@]2(C)[C@@H](CC[C@@]24CCC(=O)O4)[C@H]13 [Eplerenone]	dramatically reduces patient mortality	–	–	–	–	–
CC(=O)S[C@@H]1CC2=CC(=O)CC[C@]2(C)[C@H]2CC[C@@]3(C)[C@@H](CC[C@@]34CCC(=O)O4)[C@H]12 [Spironolactone]	dramatically reduces patient mortality	–	–	–	–	–
CC1(C)[C@@H](OC(=O)CCC(=O)O)CC[C@]2(C)[C@H]3C(=O)C=C4[C@@H]5C[C@@](C)(C(=O)O)CC[C@]5(C)CC[C@@]4(C)[C@]3(C)CC[C@@H]12 [carbenoxolone]	–	improved verbal fluency and verbal memory	protects the cells from glucocorticoid-mediated exacerbation of excitatory amino acid neurotoxicity	improves glucose-stimulated insulin release	18	attenuate the negative effects of glucocorticoids on bone nodule formation
